In ChEMBL document CHEMBL1201862, “PubChem BioAssay data set” (2004):
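Method: 48-hour compound exposure of cells in 96-well plates, five concentrations, linear interpolation of endpoints. GI50 = concentration required for 50% inhibition of growth.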 The source made the active and inactive calls. Rule as the data show it: active = GI50 up to about 1.1 µM and inactive = higher.

Legend:
Assay in all cases: NCI-60 cell line screen, 48 h
IGROV-1 = tested on: IGROV-1
SW-620 = tested on: SW-620
M14 = tested on: M14
Malme-3M = tested on: Malme-3M
MCF7 = tested on: MCF7
SR = tested on: SR
OVCAR-5 = tested on: OVCAR-5
HL-60 = tested on: HL-60
SK-MEL-28 = tested on: SK-MEL-28
SNB-19 = tested on: SNB-19
U-251 = tested on: U-251
T47D = tested on: T47D
COLO 205 = tested on: COLO 205
OVCAR-8 = tested on: OVCAR-8
NCI-H226 = tested on: NCI-H226
HOP-92 = tested on: HOP-92
ACHN = tested on: ACHN
Hs-578T = tested on: Hs-578T
PC-3 = tested on: PC-3
SF-295 = tested on: SF-295

| SMILES | GI50 (IGROV-1) | GI50 (SW-620) | GI50 (M14) | GI50 (Malme-3M) | GI50 (MCF7) | GI50 (SR) | GI50 (OVCAR-5) | GI50 (HL-60) | GI50 (SK-MEL-28) | GI50 (SNB-19) | GI50 (U-251) | GI50 (T47D) | GI50 (COLO 205) | GI50 (OVCAR-8) | GI50 (NCI-H226) | GI50 (HOP-92) | GI50 (ACHN) | GI50 (Hs-578T) | GI50 (PC-3) | GI50 (SF-295) |
| --- | --- | --- | --- | --- | --- | --- | --- | --- | --- | --- | --- | --- | --- | --- | --- | --- | --- | --- | --- | --- |
| COc1ccc(P2(=S)Oc3ccc(C(c4ccccc4)(c4ccccc4)c4ccccc4)cc3O2)cc1 (stereo not given) | 17.5 µM (inactive) | 19.6 µM (inactive) | 14.1 µM (inactive) | 20 µM (inactive) | 16.8 µM (inactive) | 22.3 µM (inactive) | 19.5 µM (inactive) | 15.5 µM (inactive) | 19.7 µM (inactive) | 16 µM (inactive) | 18 µM (inactive) | 13.7 µM (inactive) | 20.2 µM (inactive) | 16 µM (inactive) | 16.6 µM (inactive) | 18.1 µM (inactive) | 16.7 µM (inactive) | 21.8 µM (inactive) | 13.9 µM (inactive) | 18.1 µM (inactive) |
| O=C1C(Br)=Cc2c(Cl)sc(Cl)c21 | 2.59 µM (inactive) | 2.19 µM (inactive) | 7.05 µM (inactive) | 8.67 µM (inactive) | 2.44 µM (inactive) | 2.15 µM (inactive) | 13.3 µM (inactive) | 1.87 µM (inactive) | 11.6 µM (inactive) | 18.9 µM (inactive) | 2.59 µM (inactive) | 2.42 µM (inactive) | 6.76 µM (inactive) | 3.24 µM (inactive) | > 100 µM (inactive) | 2.84 µM (inactive) | 2.91 µM (inactive) | 21.8 µM (inactive) | 2.55 µM (inactive) | 24 µM (inactive) |
| COC(=O)c1nc2n(n1)-c1ccccc1C(=O)N(Cc1ccccc1)C2 | > 100 µM (inactive) | > 100 µM (inactive) | > 100 µM (inactive) | > 100 µM (inactive) | > 100 µM (inactive) | > 100 µM (inactive) | > 100 µM (inactive) | > 100 µM (inactive) | > 100 µM (inactive) | > 100 µM (inactive) | > 100 µM (inactive) | > 100 µM (inactive) | > 100 µM (inactive) | > 100 µM (inactive) | > 100 µM (inactive) | > 100 µM (inactive) | > 100 µM (inactive) | > 100 µM (inactive) | > 100 µM (inactive) | > 100 µM (inactive) |
| N#Cc1c(O)nc2[nH]nc(/N=N\c3c(O)ccc4ccccc34)c2c1-c1ccc(Cl)cc1 | 0.286 µM (active) | 0.163 µM (active) | 0.188 µM (active) | 0.143 µM (active) | 0.147 µM (active) | 0.255 µM (active) | 0.834 µM (active) | 0.0713 µM (active) | 0.311 µM (active) | 0.211 µM (active) | 0.124 µM (active) | 0.173 µM (active) | 0.433 µM (active) | 0.233 µM (active) | 0.4 µM (active) | 0.234 µM (active) | 0.296 µM (active) | 0.968 µM (active) | 0.303 µM (active) | 0.24 µM (active) |
| COc1cc2c(cc1OCCCCOc1cc3nc(C)nc(Cl)c3cc1OC)N=C[C@@H]1CCCN1C2=O | 1.64 µM (inactive) | 2.54 µM (inactive) | 1.88 µM (inactive) | 1.79 µM (inactive) | 3.03 µM (inactive) | 0.57 µM (active) | 2 µM (inactive) | 2.48 µM (inactive) | 2.34 µM (inactive) | 17.4 µM (inactive) | 1.26 µM (inactive) | 15.3 µM (inactive) | 19.1 µM (inactive) | 3.01 µM (inactive) | 1.85 µM (inactive) | 2.02 µM (inactive) | 1.94 µM (inactive) | 1.99 µM (inactive) | 3.11 µM (inactive) | 2.43 µM (inactive) |
| COc1cccc2c1C(=O)c1c(O)c3c(c(O)c1C2=O)CC(O)(C(=O)CO)CC3OC1CC(N2CCOCC2C#N)C(O)C(C)O1 (stereo not given) | > 0.01 µM (active) | < 0.0001 µM (active) | < 0.0001 µM (active) | < 0.0001 µM (active) | < 0.0001 µM (active) | < 0.0001 µM (active) | < 0.0001 µM (active) | < 0.0001 µM (active) | < 0.0001 µM (active) | < 0.0001 µM (active) | < 0.0001 µM (active) | < 0.0001 µM (active) | < 0.0001 µM (active) | < 0.0001 µM (active) | < 0.0001 µM (active) | < 0.0001 µM (active) | < 0.0001 µM (active) | > 0.01 µM (active) | < 0.0001 µM (active) | < 0.0001 µM (active) |
| O=C1/C(=C\c2c(-c3ccccc3)[nH]n(-c3ccccc3)c2=O)C(c2ccccc2)=NN1c1ccccc1 | > 100 µM (inactive) | > 100 µM (inactive) | > 100 µM (inactive) | > 100 µM (inactive) | > 100 µM (inactive) | 20 µM (inactive) | > 100 µM (inactive) | > 100 µM (inactive) | > 100 µM (inactive) | > 100 µM (inactive) | > 100 µM (inactive) | > 100 µM (inactive) | > 100 µM (inactive) | > 100 µM (inactive) | > 100 µM (inactive) | 81.3 µM (inactive) | > 100 µM (inactive) | > 100 µM (inactive) | > 100 µM (inactive) | > 100 µM (inactive) |
